This data set in a line: Mammalian cytotoxicity, CCK-8 assay. In kind it is cell-based. Particulars: human. As to the method: Bioactivity assay of the crude extract
Protease stability of massatide A
Thermal stability of massatide A […]
and 1% penicillin -streptomycin. […]
and CO 2-controllable incubator with 5% CO 2. All the cell experiments were performed […]
Cell viability was determined by the CCK -8 assay. HeLa and Hek -293T cells were […]
µg/ml. At the end of the fixed incubation period (24 h), cells were washed with PBS to remove excess compound. We added 100 µl fresh medium and 10 µl CCK-8 reagent.
After 2 h incubation at 37°C, absorbance at 450 nm was recorded using a microplate reader. All experiments were performed in triplicate (n=3 independent experiments).
Growth kinetics of S. aureus
Massatide A or B was prepared in a 96-well plate at the concentration of 8×MIC, 4×MIC, 2×MIC, 1×MIC and 0.5×MIC , respectively. The MHB medium with no compound was used as a control. Then, the overnight culture of S. aureus ATCC 25923 cells was added to the medium at 1:1,000. The plate was incubated with shaking in SpectraMax iD3 (MOLECULAR DEVICES) at 30 ℃. OD600 was measured every 30 min for 36 hours. To analyze the lysis, 1mL of S. aureus ATCC 25923 culture (OD600 1.0) was treated with massatide A or vancomycin (10×MIC) for 24h. An untreated sample was used as a negative control.
Time-dependent killing assay
An overnight culture of S. aureus ATCC 25923 cells was diluted at 1:10,000 in MHB medium and incubated at 37 ℃, 200 rpm for 2 hours to reach the early exponential.
Then, massatide A or vancomycin was added to the culture at the concentration of 10×MIC. Bacteria were still cultivated at 37 ℃, 200 rpm. Culture with no antibiotics was used as a negative control. 10 μL aliquots were removed at intervals, centrifuged, and resuspended in 1 ml PBS. Serially diluted (10-fold) suspensions were plated on MHB agar and incubated at 37 ℃ overnight for counting of colony-forming units.
Experiments were performed in triplicate.
Sequential culturing of S. aureus ATCC 25923 was performed in the presence of a subinhibitory concentration of massatide A to observe whether the resistance developed. […]

Values after ≈ are worked out from the molar mass of the structure shown.

Take `C/C=C1\NC(=O)C(N(C)C)C(C)SC[C@@H](C(=O)N[C@H](CC)C(=O)N[C@H](C(=O)N[C@@H](C)C(=O)N[C@H](C)C(=O)N[C@@H](Cc2ccccc2)C(=O)N[C@@H](C)C(=O)NC2C(=O)NCC(=O)N[C@@H](Cc3ccc(O)cc3)C(=O)N[C@@H](Cc3ccccc3)C(=O)N[C@H](C)C(=O)N/C=C\SC2C)C(C)C)NC(=O)[C@@H]2CCCN2C(=O)[C@H](C(C)C)NC1=O` (stereo partly shown) [Massatide A (1), massatide A]: the midpoint of inhibition, the IC50 at 24 h, lay at 136 µg/mL (≈ 83.4 µM).

The values above are taken from paper PMC11162475, “Rule-based omics mining reveals antimicrobial macrocyclic peptides against drug-resistant clinical isolates” (Nature Communications, 2024).
